{"source": "PubChem BioAssay AID1259411", "about": "(Chemical Carcinogenesis Research Information System (CCRIS), 2018)", "tested_on": "rodent carcinogenicity bioassays, tumor incidence", "test": "CCRIS carcinogenicity studies", "method_in_brief": "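Archive of carcinogenicity, mutagenicity, tumor promotion and tumor inhibition results drawn from journals, NCI reports and other sources, expert-reviewed; covers 1985-2011 and is no longer updated.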", "note": "Calls of active or inactive are those of the source. How the calls were made is not given here."}
{"smiles": "CCN(Cc1cccc(S(=O)(=O)O)c1)c1ccc(C(=C2C=CC(=[N+](CC)Cc3cccc(S(=O)(=O)O)c3)C=C2)c2ccccc2S(=O)(=O)[O-])cc1", "values": [{"measurement": "carcinogen call", "setting": "Species: MOUSE, Strain/Sex: CD-1/FEMALE, Route: ORAL, Dose: 0, 0.5, 1.5, 5% IN DIET FOR 104 WK (STUDY DURATION: LIFETIME), Dose: 0, 0.5, 1.5, 5% IN DIET FOR 104 WK (STUDY DURATION: LIFETIME)", "value": "inactive; negative"}, {"measurement": "carcinogen call", "setting": "Species: MOUSE, Strain/Sex: CD-1/MALE, Route: ORAL, Dose: 0, 0.5, 1.5, 5% IN DIET FOR 104 WK (STUDY DURATION: LIFETIME), Dose: 0, 0.5, 1.5, 5% IN DIET FOR 104 WK (STUDY DURATION: LIFETIME)", "value": "inactive; negative"}, {"measurement": "carcinogen call", "setting": "Species: MOUSE, Strain/Sex: ICR/FEMALE, Route: DERMAL, Dose: 0, 1 MG IN 0.1 ML DISTILLED WATER 2/WK FOR A MEAN TOTAL DOSE OF 128.8 MG (STUDY DURATION: 18 MO)", "value": "inactive; negative"}, {"measurement": "carcinogen call", "setting": "Species: MOUSE, Strain/Sex: ICR/MALE, Route: DERMAL, Dose: 0, 1 MG IN 0.1 ML DISTILLED WATER 2/WK FOR A MEAN TOTAL DOSE OF 128.8 MG (STUDY DURATION: 18 MO)", "value": "inactive; negative"}, {"measurement": "carcinogen call", "setting": "Species: RAT, Route: SUBCUTANEOUS, Tumor Site: Type of Lesion: INJECTION SITE", "value": "active; positive"}, {"measurement": "carcinogen call", "setting": "Species: RAT, Strain/Sex: STRAIN-CD/FEMALE, Route: ORAL, Dose: 0, 0.1, 1, 2% IN DIET FOR 111 WK (PARENTS FED 0; 0.1; 1; 2% RESPECTIVELY IN DIET) (STUDY DURATION: LIFETIME), Dose: 0, 0.1, 1, 2% IN DIET FOR 111 WK (PARENTS FED 0; 0.1; 1; 2% RESPECTIVELY IN DIET) (STUDY DURATION: LIFETIME)", "value": "inactive; negative"}, {"measurement": "carcinogen call", "setting": "Species: RAT, Strain/Sex: STRAIN-CD/MALE, Route: ORAL, Dose: 0, 0.1, 1, 2% IN DIET FOR 116 WK (PARENTS FED 0; 0.1; 1; 2% RESPECTIVELY IN DIET) (STUDY DURATION: LIFETIME), Dose: 0, 0.1, 1, 2% IN DIET FOR 116 WK (PARENTS FED 0; 0.1; 1; 2% RESPECTIVELY IN DIET) (STUDY DURATION: LIFETIME)", "value": "inactive; negative"}]}
{"smiles": "CC(F)(Cl)Cl", "values": [{"measurement": "carcinogen call", "setting": "Species: RAT, Strain/Sex: SPRAGUE-DAWLEY/FEMALE, Route: INHALATION, Dose: 0, 1500, 5000, 20000 PPM 6 HR/D 5 D/WK FOR 104 WK (THE HIGH EXPOSURE LEVEL WAS INCREASED FROM 15000 PPM TO 20000 PPM AFT, Dose: 0, 1500, 5000, 20000 PPM 6 HR/D 5 D/WK FOR 104 WK (THE HIGH EXPOSURE LEVEL WAS INCREASED FROM 15000 PPM TO 20000 PPM AFT", "value": "inactive; negative"}, {"measurement": "carcinogen call", "setting": "Species: RAT, Strain/Sex: SPRAGUE-DAWLEY/MALE, Route: INHALATION, Dose: 0, 1500, 5000, 20000 PPM 6 HR/D 5 D/WK FOR 104 WK (THE HIGH EXPOSURE LEVEL WAS INCREASED FROM 15000 PPM TO 20000 PPM AFT, Dose: 0, 1500, 5000, 20000 PPM 6 HR/D 5 D/WK FOR 104 WK (THE HIGH EXPOSURE LEVEL WAS INCREASED FROM 15000 PPM TO 20000 PPM AFT, Tumor Site: Type of Lesion: TESTES: INTERSTITIAL CELL ADENOMA", "value": "active; positive"}]}
{"smiles": "O=CN(O)c1ccc(/C=C/c2ccccc2)cc1", "values": [{"measurement": "carcinogen call", "setting": "Species: RAT, Strain/Sex: STRAIN-CD/FEMALE, Route: INTRAPERITONEAL, Dose: 0, 10 UMOL/KG BW 2/WK FOR 6 WK (STUDY DURATION: 62 WK), Tumor Site: Type of Lesion: LIVER: NEOPLASTIC NODULE, MAMMARY GLAND: TUMOR", "value": "active; positive"}, {"measurement": "carcinogen call", "setting": "Species: RAT, Strain/Sex: STRAIN-CD/MALE, Route: INTRAPERITONEAL, Dose: 0, 10 UMOL/KG BW 2/WK FOR 6 WK (STUDY DURATION: 62 WK), Tumor Site: Type of Lesion: TESTICLE: MESOTHELIOMA, PANCREAS(ACINUS): ADENOMA", "value": "active; positive"}]}
